The values below come from a melting point compilation (Tetko et al.).

As a reminder, the melting point is the temperature of the solid-liquid transition. The molecule `COC(=O)c1c(C)[nH]c(C(=O)O)c1C` registered a melting point of 206 to 208 °C.
For the molecule `O=C(O)CC=Cc1ccccc1F`, the melting point is 54 to 56 °C.
The molecule `Sc1nnnn1C1CCCC1` showed a melting point of 123 to 125 °C.
`Cc1cc(C=O)c(C)n1-c1ccnn1C(C)C` displayed a melting point of 77 to 79 °C.
The same measure for `N#Cc1ccccc1Oc1ccccc1C(=O)O`: 147 to 149 °C.
The same measure for `CN(C)c1ccc(C#N)c(N)c1`: 109 to 111 °C; for `CC(NC(=O)c1ccc(Br)cc1)C(=O)O` (configuration not stated): 138 to 140 °C.
The same measure for `Clc1ccc(-c2nc3ccccc3[nH]2)cn1`: 198 to 200 °C.
As to `Fc1cc(Br)cc2c(Cl)ccnc12`, the melting point is 149 to 151 °C.
The same measure for `COc1ccc(-c2cnc(CCC(=O)O)o2)cc1`: 158 to 160 °C; for `CC1CNc2c(cccc2S(N)(=O)=O)C1` (configuration not stated): 162 to 164 °C.
`O=C(O)C1CC(=O)N(c2ccccc2Cl)C1` (configuration not stated) gave a melting point of 141 to 143 °C.
The same measure for `Sc1nnc(Nc2ccc(Oc3ccccc3)cc2)s1`: 183 to 185 °C; for `CS(=O)(=O)c1ccc(CN)cc1`: 272 to 274 °C; for `Cn1cc(-c2nnc(N)o2)cn1`: 253 to 255 °C.
The same measure for `Nc1cccc(NC(=O)N2CCCCCC2)c1`: 121 to 123 °C; for `Cc1ccc(Oc2ccc(Cl)cc2NC(=O)CCl)cc1`: 87 to 89 °C; for `CC(C)(C)OC(=O)NCC(C)(C)C(=O)O`: 116 to 118 °C.
`O=C(CCl)NCCC(c1ccccc1)c1ccccc1` came in with a melting point of 104 to 107 °C.
`ClCc1ncc(-c2ccccc2Br)o1` gave a melting point of 85 to 87 °C.
For the molecule `O=c1ccccn1CCO`, the melting point lay within 88 to 90 °C.
Turning to `Cc1nc(N)n(-c2ccc(C#N)cc2)n1`, the melting point fell in the range of 270 to 272 °C.
The same measure for `CC(=O)Nc1cccc(CO)c1`: 113 to 115 °C.
The same measure for `Cc1sc2[nH]c(-c3ccc(Cl)nc3)nc(=N)c2c1C`: 133 to 135 °C; for `CN(C)C(=O)c1cc(N)ccc1Cl`: 158 to 160 °C.
`O=C(O)c1cccnc1SCc1cccc(Br)c1` registered a melting point of 186 to 188 °C.
The same measure for `CC(=O)c1cccc(S(=O)(=O)N2CCOCC2)c1`: 142 to 144 °C.
The same measure for `COCCCOc1cc(C)ccc1C#N`: 67 to 69 °C.
The same measure for `NC(=S)NCCc1ccccn1`: 94 to 98 °C; for `O=S(=O)(Cl)c1c[nH]c2nccc(Br)c12`: 177 to 179 °C.
As to `Cc1cc(C)nc(NCc2cccc(C(=O)O)c2)n1`, the melting point lay in the range of 224 to 226 °C.
As to `Oc1ccc(Sc2ccnc3cc(Cl)ccc23)cc1`, the melting point was in the range of 231 to 233 °C.
The same measure for `O=[N+]([O-])c1ccc(Oc2ccccc2Br)c(Cl)c1`: 86 to 88 °C; for `O=C(c1cc2ccccc2o1)C1CC1`: 63 to 65 °C.
The same measure for `NCCC(=O)N1CCN(c2ncccn2)CC1`: 87 to 89 °C; for `Cc1ccc2c(c1C)OCCCC2=O`: 50 to 52 °C.
The same measure for `Cc1ccc(S(C)(=O)=O)cc1C(=O)O`: 204 to 206 °C; for `Nc1ccc(OCC(F)(F)F)cc1`: 66 to 68 °C; for `NC(=O)c1c(N)sc2c1-c1ccccc1CCC2`: 145 to 147 °C.
`Cc1ccc(-n2[nH]c(C(=O)O)cc2=O)cc1`: the melting point was in the range of 259 to 261 °C.
The same measure for `Nc1ccccc1C(=O)Nc1ccc(F)cc1Cl`: 103 to 105 °C.
Turning to `O=C1COc2ccc(Br)cc2N1CCCl`, the melting point fell in the range of 117 to 119 °C.
`Oc1ccc(Br)cc1-c1nn[nH]n1` gave a melting point of 188 to 190 °C.
The same measure for `Cc1cc(C(=O)O)ccc1S(N)(=O)=O`: 255 to 257 °C; for `CCS(=O)(=O)Nc1cc(Br)ccc1OC`: 105 to 107 °C; for `Cc1sc(C(N)=O)cc1N`: 179 to 181 °C.
The same measure for `Nc1cc(Cl)ccc1C(=O)N1CCCC1`: 118 to 120 °C; for `O=C(Nc1cccc(-c2nnnn2C2CC2)c1)OCC(F)(F)F`: 124 to 126 °C.
The same measure for `O=C(O)c1cnc2c(cnn2Cc2ccccc2)c1`: 210 to 212 °C; for `Nc1ccc(Sc2ccccn2)c(Cl)c1`: 110 to 112 °C; for `Cc1ccc(-c2nnc(N)o2)cc1F`: 264 to 266 °C.
In the case of `CNc1ncnc2ccccc12`, the melting point is 179 to 181 °C.
Molecule `CC(=O)Nc1cc2c(cc1C)OCO2` gave a melting point of 164 to 166 °C.
On to `Cc1sc2ncnc(SCC(=O)O)c2c1C`, for which the melting point was 215 to 217 °C.
`O=C(O)CC1CSCCS1` (configuration not stated): the melting point was 77 to 79 °C.
The same measure for `CN(C)S(=O)(=O)c1ccc(Cl)c(N)c1`: 119 to 121 °C; for `Nc1nnc(C(F)F)s1`: 174 to 176 °C; for `O=C(O)Cc1csc(-c2ncccn2)n1`: 173 to 175 °C.
The same measure for `N#CCn1cc(N)cn1`: 71 to 73 °C; for `N=c1nc(S)ss1`: 192 to 196 °C; for `O=C(O)c1cn(Cc2ccccc2)nc1-c1ccccc1`: 189 to 191 °C.
The same measure for `Nc1cccc(-c2cn3cccnc3n2)c1`: 125 to 130 °C; for `CCC(C)c1ccc(C(=O)O)cc1` (configuration not stated): 88 to 90 °C.
Molecule `CC(C)Oc1ccc(S(=O)(=O)N2CCOCC2)cc1N` registered a melting point of 149 to 151 °C.
In turn, `NS(=O)(=O)c1scnc1C(=O)O` displayed a melting point of 205 to 207 °C.
Regarding `O=C(O)c1ccc(CN2C(=O)c3ccccc3C2=O)cc1`, the melting point was 258 to 260 °C.
Molecule `Cc1cc(C(=O)CCl)c(C)n1-c1ccccc1F` registered a melting point of 86 to 90 °C.
The same measure for `Nc1nonc1C(=O)O`: 214 to 216 °C; for `O=C(O)Cc1csc(-c2ccsc2)n1`: 110 to 112 °C; for `Cc1cc(N)n(Cc2ccccc2)n1`: 68 to 70 °C.
The same measure for `Cc1cc([N+](=O)[O-])cc(S(=O)(=O)Cl)c1F`: 73 to 75 °C; for `NC(CC(=O)O)c1cccs1` (configuration not stated): 219 to 221 °C.
The same measure for `O=C(O)c1ccc(N2CCOC2=O)cc1`: 271 to 273 °C.
Consider `O=C(O)Cn1[nH]c(=O)c2ccccc2c1=O`, for which the melting point is 272 to 274 °C.
Molecule `COc1cc(C#N)ccn1` returned a melting point of 94 to 96 °C.
The same measure for `Cc1cc(O)nc(-c2ccc(-c3ccccc3)cc2)n1`: 275 to 277 °C; for `Cc1cc(C)c(C(=O)O)c(Cl)n1`: 78 to 82 °C; for `Cc1ccc(Oc2ccc(N)cc2)nc1`: 90 to 92 °C.
In the case of `CCCCOc1ccc(C(C)=O)cc1OC`, the melting point was 47 to 49 °C.
The same measure for `NC(=O)C(CC(=O)O)NC(=O)OCc1ccccc1` (configuration not stated): 169 to 171 °C.
The same measure for `O=C1COc2c(F)cc(Br)cc21`: 102 to 104 °C.
The same measure for `Cc1cc(C(=O)CCl)c(C)n1CC(F)(F)F`: 143 to 145 °C.
The molecule `O=C(O)C1(c2ccc(Br)cc2)CC1` gave a melting point of 155 to 157 °C.
The same measure for `CCc1ccc(-c2csc(NC(=O)C(C)Cl)n2)cc1` (configuration not stated): 108 to 110 °C; for `CCCNc1ccc(Cl)cc1N`: 62 to 64 °C; for `NC(=O)NC(=O)CCl`: 181 to 183 °C.
`CCn1c(=O)[nH]c(=O)c2cc(C(=O)O)cnc21`: the melting point was 316 to 318 °C.
The molecule `CC(C(=O)O)S(=O)(=O)Cc1ccc(Br)cc1` (configuration not stated) came in with a melting point of 135 to 137 °C.
`COC(=O)c1cc(-c2ccccc2)nc2ccccc12` registered a melting point of 60 to 62 °C.
Consider `CNS(=O)(=O)c1ccc(C(C)N)cc1` (configuration not stated), for which the melting point lay in the range of 104 to 106 °C.
`O=C(O)c1ccc(S(=O)(=O)Cl)cc1Cl`: the melting point lay in the range of 133 to 135 °C.
The same measure for `COc1cccc(C(N)CC(=O)O)c1` (configuration not stated): 223 to 225 °C; for `O=C(CCl)Nc1ccccc1OC(F)F`: 92 to 94 °C; for `Cc1cc(C(=O)CCl)c(C)n1-c1ccc(C(F)(F)F)cc1`: 115 to 117 °C.
The same measure for `Cc1ccc(-n2[nH]c(-c3ccco3)cc2=N)cc1`: 93 to 95 °C.
The same measure for `CC(C(=O)Nc1ccc(N)cc1)n1cncn1` (configuration not stated): 202 to 204 °C.
Turning to `NS(=O)(=O)c1ccc(Cl)c(NC(=O)CCl)c1`, the melting point lay within 172 to 174 °C.
Regarding `Cc1nn(C)c2c1N(C(=O)OC(C)(C)C)CC(C)N2` (configuration not stated), the melting point fell in the range of 129 to 131 °C.
Consider `CN(CC(=O)Nc1ccc(Cl)c(C(F)(F)F)c1)C(=O)CCl`, for which the melting point fell in the range of 164 to 165 °C.
The same measure for `O=C(O)Cc1c[nH]c2ccc(Cl)cc12`: 157 to 159 °C; for `CCOC(=O)C=Cc1ccc2c(c1)OCO2`: 66 to 68 °C; for `CC(N)C(=O)Nc1ccc(-n2cncn2)cc1` (configuration not stated): 169 to 171 °C.
The same measure for `CCCNc1c(N)n(Cc2ccccc2)c(=O)[nH]c1=O`: 210 to 212 °C; for `Cc1cc(C=O)c(C)n1CC(C)C`: 43 to 47 °C.
The same measure for `CCCC(NCCC(=O)Nc1cc(C)on1)C(=O)O` (configuration not stated): 227 to 229 °C.
`Cc1ccc2nc(CCl)cc(=O)n2c1` yielded a melting point of 136 to 138 °C.
`CCOC(=O)c1noc(N)c1-c1ccccc1` showed a melting point of 105 to 117 °C.
Turning to `N#CCc1ccnc(N)c1`, the melting point was in the range of 104 to 106 °C.
The same measure for `Nc1ccc(-c2ccccn2)cn1`: 89 to 91 °C; for `c1cc2[nH]ccc2cn1`: 107 to 109 °C.
Regarding `O=C(O)c1cncc(OCC(F)F)c1`, the melting point was 166 to 168 °C.
Regarding `Cc1nc2[nH]cnc2cc1Br`, the melting point lay within 197 to 199 °C.
The same measure for `Cn1cccc1C(=O)CCl`: 30 to 40 °C.
The same measure for `COc1cccc2[nH]cc(CC#N)c12`: 133 to 135 °C; for `OC(CNC1CC1)c1ccc(F)cc1` (configuration not stated): 84 to 86 °C.
The same measure for `Nc1cc2c(c(C(=O)O)c1)OCCO2`: 213 to 215 °C.
`CC(C)(C)OC(=O)N1CCC(O)(c2ccccc2CO)CC1` displayed a melting point of 106 to 108 °C.
The same measure for `CCS(=O)(=O)Nc1ccc(N)cc1C`: 101 to 103 °C; for `Cn1c(=O)n(C)c2cc(Br)ccc21`: 163 to 165 °C; for `COC(C)C(N)=NO` (configuration not stated): 118 to 120 °C.
Take `CC(C)Oc1ccc(-c2csc(N)n2)cc1`: the melting point lay in the range of 191 to 193 °C.
On to `N#Cc1cc(F)c(S(=O)(=O)Cl)c(F)c1`, for which the melting point lay in the range of 92 to 94 °C.
